“Also recorded” adds a separate entry of the source. Read-outs that look alike come from different tables or passages of the source.

Here are results for three compounds from US20060121040A1, “Compositions and methods for treating neuroendocrine tumors” (Wisconsin Alumni Research Foundation, priority 2004, published 2006).

Series [1] has as its system human achaete-scute homolog-1 (hASH1). Briefly: NE marker hASH1 in medullary thyroid cancer TT cells. As to conditions: SB216763 0-50 μM. It counts as cell-based.
The test system of series [2] is medullary thyroid cancer TT cells. Briefly: Cellular growth of medullary thyroid cancer cells. It counts as cell-based, human.
The subject of the next series is chromogranin A (CgA). Briefly: NE marker chromogranin A in medullary thyroid cancer TT cells. As to conditions: SB216763 0-50 μM. It counts as cell-based, human.
Series [3] has as its system H727 cells. Briefly: Cytotoxicity assay (Cell Titer Glo), H727 cells. The class given is cell-based, human. As to conditions: ZM336372 tested 0 to 200 μmol/L. The procedure:
(§1) Cells (H727 and BON) were harvested by trypsinization and plated at a cell density of 3,000 cells per well of each microtiter plate. Cells were grown for 4 hours at 37° C. to allow cell attachment to occur before compound addition. Doxorubicin (control) and ZM336372 were dissolved in DMSO. […] Treatments were done in duplicate. Cells were incubated with the test compounds for 72 hours before reading the assay. Then processing and calculation were done according to manufacturer's directions for Cell Titer Glo Assay (Promega, Madison, Wis.).
A general note: Cellular ATP, detected with luciferase, serves as a proxy for viable cell number.

The test system of another series is p21. Briefly: Western analysis of cell cycle inhibitor p21 in H727 cells. The class given is cell-based, human. As to conditions: 20 and 100 μmol/L, 2 days.
For a further series, the target named is T1, GSK3B (Homo sapiens, UniProt P49841).
T1 construct: treatment of NE tumor cells with ZM336372 (0-50 μM); endogenous in cells; host or cells: BON and TT cells
The experiment in a line: Phosphorylated GSK3B in NE tumor cells (BON and TT) treated with ZM336372 (FIG. 7). The class given is cell-based. As to conditions: ZM336372 0-50 μM.

The test system of series [4] is hASH1. Briefly: Western analysis of hASH1 in H727 cells. The class given is cell-based, human. The procedure:
(§2) H727 and BON cells were plated at 50% to 60% confluence in 100-mm cell culture dishes and incubated overnight. Cells were treated with ZM336372 (BioMol, Plymouth Meeting, Pa.) in different concentrations for up to 6 days. Of note, treatments were done in serum-containing medium. Furthermore, the DMSO concentration never exceeded 2% in all treatment groups. ZM336372 at 500 μmol/L concentrations were used only in the toxicity experiments. Stock ZM336372 was made at higher concentration to reduce DMSO toxicity.
(§3) Changes in chromogranin A levels are known to be concordant with alterations in other neuroendocrine hormones such as histamine and serotonin (Sippel & Chen, Surgery 2002;132:1035-9). Additionally, hASH1 is expressed in most neuroendocrine tumors and correlates with neuroendocrine hormone levels as previously described. Therefore, to determine if ZM336372 can reduce chromogranin A and hASH1, pulmonary H727 and gastrointestinal BON carcinoid cells were treated with ZM336372. […] Furthermore, to determine when chromogranin A depletion occurs, H727 cells were treated with ZM336372 at different time intervals.

For series [5], the system named is Raf-1/MEK/ERK system. The experiment in a line: Western analysis for Raf-1 pathway activation in H727 cells. The class given is cell-based, human. The procedure:
as §2

The subject of series [6] is BON cells. The experiment in a line: Cytotoxicity assay (Cell Titer Glo), BON cells. The class given is cell-based, human. As to conditions: 72 hours, ZM336372 tested 0 to 200 μmol/L. The procedure: as §1
Another series relates to ERK1/2. Briefly: Phosphorylated ERK1/2 in NE tumor cells (BON and TT) treated with ZM336372 (FIG. 7). As to conditions: ZM336372 0-50 μM. It counts as cell-based, human.
For series [7], the system named is Raf-1/MEK/ERK system. Briefly: Western analysis for Raf-1 pathway activation in BON cells. As to conditions: increasing doses (20 and 100 μmol/L), 2 d. It counts as cell-based, human. The procedure:
as §2

A further series has as its system p18. The experiment in a line: Western analysis of cell cycle inhibitor p18 in H727 cells. As to conditions: 20 and 100 μmol/L, 2 days.
In series [8] the test system is H727 cells. The experiment in a line: Cell proliferation assay (MTT) in H727 cells. It counts as cell-based, human. As to conditions: 100 μmol/L vs DMSO, up to 16 days, serum-containing medium. The procedure:
(§4) Cells were trypsinized and plated in triplicate to 24-well plates and allowed to adhere overnight. […] Media were changed every 2 days with new treatment. […] Absorbance was determined using spectrophotometer at a wavelength of 540 nm.

Series [9] relates to BON cells. Briefly: Drug toxicity assay, propidium iodide exclusion, BON cells. The class given is cell-based, human. As to conditions: 63 to 500 μmol/L, 2 days. The procedure: Briefly, cells were trypsinized and plated in a 6-well plate at 1 to 2×10^6 in triplicate and allowed to adhere overnight. Then the media was replaced with fresh media containing various concentrations (31.25, 62.5, 125, 250, and 500 μmol/L) of ZM336372 and incubated for up to 3 days. As a control, DMSO was added. After incubation, the medium was removed and cells were trypsinized and added to removed medium. Cells were incubated on ice and 2.5 Ag/mL propidium iodide (Sigma) was added 5 minutes before flow cytometry (17). Data was acquired using a FACSCalibur bench top flow cytometer (Becton Dickinson, San Jose, Calif.) using CellQuest acquisition and analysis software.

Series [10] concerns chromogranin A. Briefly: Western analysis of chromogranin A in BON cells. It counts as cell-based, human. As to conditions: 20 and 100 μmol/L, 2 d. The procedure: as §2, §3
Series [11] concerns hASH1. Briefly: Western analysis of hASH1 in BON cells. It counts as cell-based, human. As to conditions: 20 and 100 μmol/L, 2 d. The procedure: as §2, §3
The test system of series [12] is H727 cells. Briefly: Drug toxicity assay, propidium iodide exclusion, H727 cells. The class given is cell-based, human. The procedure:
Briefly, cells were trypsinized and plated in a 6-well plate at 1 to 2×10^6 in triplicate and allowed to adhere overnight. […] As a control, DMSO was added. After incubation, the medium was removed and cells were trypsinized and added to removed medium. Cells were incubated on ice and 2.5 Ag/mL propidium iodide (Sigma) was added 5 minutes before flow cytometry (17). Data was acquired using a FACSCalibur bench top flow cytometer (Becton Dickinson, San Jose, Calif.) using CellQuest acquisition and analysis software.

The test system of series [13] is BON cells. Briefly: Cell proliferation assay (MTT) in BON cells. It counts as cell-based, human. As to conditions: 100 μmol/L vs DMSO, day 4 to day 10. The procedure: as §4
Series [14] deals with chromogranin A. The experiment in a line: Western analysis of chromogranin A in H727 cells. It counts as cell-based, human. The procedure:
as §2, §3

T1 sequence (P49841 whole entry): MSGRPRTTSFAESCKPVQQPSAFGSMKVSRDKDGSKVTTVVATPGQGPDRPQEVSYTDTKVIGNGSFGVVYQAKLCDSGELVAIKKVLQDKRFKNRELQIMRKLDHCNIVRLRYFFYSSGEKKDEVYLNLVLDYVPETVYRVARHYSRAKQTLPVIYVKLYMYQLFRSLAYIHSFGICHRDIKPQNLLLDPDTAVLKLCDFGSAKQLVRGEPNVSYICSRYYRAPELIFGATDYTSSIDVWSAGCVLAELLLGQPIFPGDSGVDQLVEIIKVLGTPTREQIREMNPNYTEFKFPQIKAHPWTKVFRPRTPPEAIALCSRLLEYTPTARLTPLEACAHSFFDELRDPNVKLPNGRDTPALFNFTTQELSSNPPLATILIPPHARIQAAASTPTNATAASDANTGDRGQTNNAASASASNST
Procedure for p18: (§5) Cellular extracts were prepared and quantified by bicinchoninic acid protein assay kit (Pierce, Rockford, Ill.) as previously described (Sippel & Chen, Surgery 2002;132:1035-9). Denatured proteins (30-50 μg) from each sample underwent electrophoresis on a SDS polyacrylamide gel and transferred to a nitrocellulose membranes (Schleicher and Schuell, Keene, N.H.). Membranes were blocked for 1 hour in milk solution (1×PBS, 5% nonfat dry milk, 0.05% Tween 20) and incubated at 4° C. overnight with primary antibodies. The following primary antibody dilutions were used: phospho-ERK1/2 (1:1,000), phospho-MEK (1:1,000), phospho-Raf-1 (Ser338; 1:1,000), p21 and p18, (1:1,000) (Cell Signaling Technology, Beverly, Mass.), Chromogranin A (1:2,000; Zymed Laboratories, San Francisco, Calif.), MASH-1 (1:1000, BD Pharmingen, San Diego, Calif.), and G3PDH (1:10,000; Trevigen, Gaithersburg, Md.). After primary antibody incubation, membranes were washed 3×5 minutes in PBS-T wash buffer (1×PBS and 0.05% Tween 20). Then the membranes were incubated with either 1:2,000 dilution of goat anti-rabbit or goat anti-mouse secondary antibody (Cell Signaling Technology) depending on the source of the primary antibody for 1 hour at room temperature. […]
Procedure for p21: as §5

With `Cn1cc(C2=C(c3ccc(Cl)cc3Cl)C(=O)NC2=O)c2ccccc21` [SB216763], the hASH1 result in [1] was “suppression; also recorded: reduction”. For the same compound, the TT cell growth entry in series [2] (SB216763 0-50 μM) is “suppression”. Besides, in the series with chromogranin A (CgA), the “chromogranin A production” value is listed as “suppression; also recorded: reduction”.

Usually IC50 stands for the concentration needed to halve the response being measured. Take `Cc1ccc(NC(=O)c2cccc(N(C)C)c2)cc1NC(=O)c1ccc(O)cc1` [ZM336372]: the IC50 entry in the series with H727 cells [3] (72 hours) and with BON cells [6] was “did not produce enough cellular cytotoxicity to estimate an IC50” in each case. Besides, in the series with p21, the p21 expression entry is reported as “induced; also recorded: significant induction”. In addition, the “levels of phosphorylated GSK3B” value at GSK3B is “increased levels”. Moreover, the “first recognized reduction in hASH1” value with hASH1 [4] (100 μmol/L) is reported as 1 h. Further, the hASH1 level entry in the series on hASH1 [4] (20 and 100 μmol/L, 2 d) was “reduction; also recorded: dose-dependent decrease”; with hASH1 [11], “reduction; also recorded: dose-dependent decrease”. The “MEK1/2 phosphorylation at days 4 and 6” value in the series on Raf-1/MEK/ERK system [5] (100 μmol/L) was “sustained; also recorded: greater than controls out to 6 d”. Also, the “Raf-1 phosphorylation at Ser338” value in the series with Raf-1/MEK/ERK system [5] (20 and 100 μmol/L, 2 days) is listed as “phosphorylated; also recorded: dose-dependent increases”. Moreover, the “MEK1/2 and ERK1/2 phosphorylation” value with Raf-1/MEK/ERK system [5] (20 and 100 μmol/L, 2 days, vs DMSO) was “activation; also recorded: dose-dependent increases”. The “levels of phosphorylated ERK1/2” value in the series on ERK1/2 is “increased levels”. In the series on Raf-1/MEK/ERK system [7], the “ERK1/2 and MEK1/2 phosphorylation” value is reported as “strong activation; also recorded: dose-dependent increases”. For the same compound, the “growth of other neuroendocrine tumor cell lines” value in series [2] (ZM336372, medullary thyroid cancer cells, data not shown) is recorded as “inhibited growth”. For the same compound, the p18 expression entry with p18 is reported as “induced; also recorded: significant induction”. The cell proliferation entry is given as “growth suppressed; also recorded: inhibited” in the series with H727 cells [8] and “growth suppression; also recorded: inhibited” in the series with BON cells [13]. In the series on BON cells [9], this compound gave a cells remaining viable of around 70%. Further, the “chromogranin A level” value was “reduction; also recorded: dose-dependent decrease” in the series on chromogranin A [10]; “reduction; also recorded: dose-dependent decrease” with chromogranin A [14] (20 and 100 μmol/L, 2 d). In the series with H727 cells [12] (20-100 μmol/L), this compound showed a cytolysis below 20%. Also, in the series with H727 cells [12] (H727, 20 to 100 μmol/L vs DMSO, 2 d), the viability entry was “significant viability was maintained”. For the same compound, in the series on chromogranin A [14] (100 μmol/L), the “time of greatest comparative loss of chromogranin A” value stood at 48 h. Besides, in the series with chromogranin A [14] (100 μmol/L vs DMSO), the “lasting effect on chromogranin A (days 2, 4 and 6)” value is recorded as “maintained to 6 days; also recorded: persistent reduction”. Also, the “earliest detection of reduction of chromogranin A” value in the series on chromogranin A [14] (100 μmol/L, 10 min, 1, 12, 24, 48 h) stood at 1 h.

`COc1cccc2c1C(=O)c1c(O)c3c(c(O)c1C2=O)C[C@@](O)(C(=O)CO)C[C@@H]3O[C@H]1C[C@H](N)[C@H](O)[C@H](C)O1` [doxorubicin]: the half-inhibitory concentration (IC50) with H727 cells [3] (Homo sapiens, NCI-H727, 72 hours, read-out: IC50) stood at 1100 nM; in the series on BON cells [6] (Homo sapiens, read-out: IC50) it was 1400 nM.
